A short description of data set [1]: In vitro drug release, dialysis membrane diffusion technique. The format is physicochemical. The procedure: The release of CUD-SLN and free CUD in vitro was studied using a dialysis membrane diffusion technique (MWCO 8000–14,000) (He et al. [2020]). Due to the low solubility of CUD in the buffer, Tween 80 was added to satisfy the leaking conditions. A total of 500 mL of PBS buffer with 10% w/v Tween 80 (pH 7.35) was used as a release medium. Next, 2 mL of freshly prepared CUD-SLN (1 mg/mL) was transferred to the dialysis bags, and 2 mg free CUD (suspended in 2 mL 0.5% w/v CMC-Na) was transferred to dialysis bags as a control. The test bags were immersed in a release medium at 37 ± 0.5 °C and stirred at 100 rpm using a dissolution apparatus (ZRS-8G, Intelligent dissolution tester, ZRS-8G, Tianjin, China). An aliquot of the sample (1 mL) was removed from the release medium at 15 and 30 min and 1, 2, 4, 6, 8, 12, 24 and 48 h. After each sampling, the blank dissolution medium was replenished with the same temperature and volume. Removed samples were filtered through a 0.22 μm filter, the CUD content was analysed by a UV–vis spectrophotometer, and the analytical method described before. The in vitro release data of the drug were fitted with the zero-order release equation, the first-order release equation and the Higuchi equation (Ma et al. [2019]).
(§1) Evaluation of the comprehensive design experiment was performed by SPSS 17.0 software (SPSS Inc., Chicago, IL). Fitting of the release curve was performed by Origin 8.0 software. Pharmacokinetic data were processed by DAS 2.1.1 software to obtain relevant pharmacokinetic parameters. Student’s t-test for two groups and one-way ANOVA for multiple groups were employed for the data analysed. p < 0.05 was considered statistically significant.

The nature of data set [2]: Pharmacokinetic study after intravenous injection. Format: in vivo. The following applies: male, Sprague Dawley, rat, SD rats, 5 mg/kg intravenous, plasma, n = 5. The procedure:
Sprague Dawley (SD) male rats aged 8 weeks weighing 250–300 g were provided by the Laboratory Animal Center of Southwest Medical University and were placed in a pathogen-free environment, and had free access to food and water. Studies involving animals were approved (approval number: SCXK (Chuan) 2013-17) by the Ethics Committee of Southwest Medical University.
Rats that were used for the pharmacokinetic study were fasted for more than 12 h before use and had free access to water. Rats were randomly divided into two groups (n = 5), namely, the Cur group and CUD-SLN group, Rats in both groups were injected intravenously with 5 mg/kg of corresponding drugs. Approximately, 200 µL of blood was collected using a heparin-coated syringe at 2, 5, 15 and 30 min and at 1, 2, 4, 6, 8, 12, 24, 30, 36, 48, 54, 60, 72 and 84 h after injection. Blood was centrifuged for 10 min at 3000 rpm, and plasma was obtained. Furthermore, 50 µL of acetate buffer (pH 3.5) was added to 100 μL of plasma. After vortexing for 1 min, 0.5 mL of extract solvent (methanol–ethyl acetate 10:90, v/v) was added to the mixture, the mixture was vortexed again for 3 min, followed by centrifugation for 3 min at 8000 rpm. Then, 0.5 mL of supernatant was removed and evaporated with nitrogen flow. Next, 200 μL of reconstituted solvent (acetonitrile contains 0.1% phosphoric acid) was added to the dry residue, vortexed for 4 min, sonicated for 4 min, and centrifuged for 10 min at 10,000 rpm, A total of 50 μL of the supernatant was removed for the high-performance liquid chromatography (HPLC) (1260 Infinity II, Agilent Technologies, Santa Clara, CA) and calculated with the standard curve (Cur: A = 157.21 C + 0.148, R^2=0.9991, range: (0.02, 12) μg/mL; CUD: A = 18.159 C + 0.4884, R^2=0.9998, range: (0.02, 5) μg/mL; A = 46.552 C – 179.81, R^2=0.9997, range: (5, 160) μg/mL). […] The detection wavelength was 409 nm (Guo et al. [2020]).
as §1

2 molecules from article PMC9704087, “Solid lipid nanoparticle as an effective drug delivery system of a novel curcumin derivative: formulation, release in vitro and pharmacokinetics in vivo” (Pharmaceutical Biology, 2022) can be followed below.

For “Carbonic acid 17-(1,5-dimethyl-hexyl)-10,13-dimethyl-2,3,4,7,8,9,10,11,12,13,14,15,16,17-tetradecahydro-1H-cyclopenta[a]phenanthren-3-yl ester 4-[7-(4-hydroxy-3-methoxy-phenyl)-3,5-dioxo-hepta-1,6-dienyl]-2-methoxy-phenyl ester [CUD]”, the “cumulative release of CUD at 48 h” value in data set [1] (PBS with 10% w/v Tween 80, pH 7.35, 37 °C, 100 rpm, n = 6) was 60.24 ± 5.08%. Moreover, in data set [1] (fit of in vitro release data), the “First-order equation k1” value was found to be 0.2258, the “Higuchi's equation kh” value was 8.6574 and the “Zero order equation k0” value is recorded as 1.0410.
A word on the AUC(0-inf): it is the area under the concentration-time curve extrapolated to infinity. The low end stands for less exposure, the high end for more exposure. The term AUC(0-t) denotes exposure summed from dosing to a finite time, without extrapolation to infinity. Lower therefore signals less exposure. A word on the Cmax: it is the highest concentration seen after dosing. As a reminder, the Tmax is the time at which the peak concentration occurs. In general, clearance refers to the volume of plasma or blood freed of the substance per unit of time. With `COc1cc(/C=C/C(=O)CC(=O)/C=C/c2ccc(O)c(OC)c2)ccc1O` [Cur, Curcumin], in data set [2], the AUC(0-inf) worked out at 4.88 µg·h/mL, the AUC(0-t) stood at 4.61 µg·h/mL, the Cmax is 0.332 µg/mL and the Tmax was 6 h. Also, the clearance in data set [2] (read-out: CLz (clearance) (converted)) was 10.2 L/h/kg. In addition, the MRT last in data set [2] (read-out: MRT0–t) was determined as 9.53 h. For the same molecule, the MRT inf in data set [2] (read-out: MRT0–∞) is 10.8 h. Besides, the half-life in data set [2] (read-out: t1/2z (half-life) (converted)) is 5.6 h.
